Reference: patent US8993562B2, “Imidazo[1,2-b]pyridazines, processes, uses, intermediates and compositions” (Ferrer Internacional, S.A., priority 2006, dated 2015)

Legend:
male CD1 mice = test: In vivo predictive sedation-hypnosis test (traveled distance); details: Mus musculus, ip, 0.5 h, traveled distance over 30 min versus control, read-out: % inhib motor activity; for inhibition in vivo at 0.98 µmol/kg: 0.98 μmol/kg intraperitoneal; for inhibition in vivo at 98 µmol/kg: 98.0 μmol/kg intraperitoneal
Procedure: b) In Vivo Determination of Predictive Sedative-hypnotic Action
The in vivo effects of these compounds were assessed by a predictive sedation-hypnosis test in mice (D. J. Sanger et al., Eur. J. Pharmacol., 313, 35-42, 1996; and G. Griebel et al., Psychopharmacology, 146, 205-213, 1999).
Groups of 5-8 male CD1 mice, weighing 22-26 g at the time of test, were used. […] Compounds were suspended in 0.25% agar with one drop of Tween in a volume of 10 mL/kg. Control animals were given the vehicle alone. Using a Smart System (Panlab, S. L., Spain) the traveled distance in cm is recorded for each mouse at 5-minutes intervals during a period of 30 minutes after dosing. The inhibition percentage of traveled distance of treated animals versus control animals (the first 5 minutes were discarded) was calculated.

α1-GABAA receptor = test: Ligand-binding assay, radiolabeled flumazenil competition, cerebellum membranes; details: rat cerebellum membranes, radiolabeled flumazenil 1 nM
Procedure: a) Ligand-binding Assays. Determination of the Affinity of Test Compounds for α1- and α2-GABAA Receptor
Male Sprague-Dawley rats weighing 200-250 g at the time of experiment were used. After decapitation of the animal, the cerebellum (tissue that mostly contains α1-GABAA receptor) and spinal cord (tissue that mostly contains α2-GABAA receptor) were removed. The membranes were prepared according to the method by J. Lameh et al. (Prog. Neuro-Psychopharmacol. Biol. Psychiatry, 24, 979-991, 2000) and H. Noguchi et al. (Eur J Pharm, 434, 21-28, 2002) with slight modifications. Once the tissues weighed, they were suspended in 50 mM Tris.HCl (pH 7.4), 1:40 (v/v), or sucrose 0.32 M in the case of spinal cord, homogenized and then centrifuged at 20000 g for 10 minutes at 7° C. The resulting pellet was resuspended under the same conditions and centrifuged again. The pellet was finally resuspended on a minimum volume and kept at −80° C. overnight. A slight modification was used in the case of spinal cord at the first centrifugation step. Centrifugation speed was at 1000 g and the supernatant was collected instead of discarded as in cerebellum. Then, supernatant was centrifuged at 20000 g and resuspended twice more under the same conditions described above for cerebellum. On the next day, the process was repeated until the final pellet was resuspended at a ratio of 1:10 (v/v) in the case of cerebellum and at a ratio of 1:5 (v/v) in the case of spinal cord.
Affinity was determined by competitive tests using radiolabeled flumazenil as ligand. The tests were performed according to the methods described by S. Arbilla et al. (Eur. J. Pharmacol., 130, 257-263, 1986); and Y. Wu et al. (Eur. J. Pharmacol., 278, 125-132, 1995) using 96-well microtiter plates. The membranes containing the study receptors, flumazenil (radiolabeling at a final concentration of 1 nM) and ascending concentrations of test compounds (in a total volume of 230 μl in 50 mM [pH 7.4] Tris.HCl buffer) were incubated. Simultaneously, the membranes were only incubated with the radiolabeled flumazenil (total binding, 100%) and in the presence of an elevated concentration of unradiolabeled flumazenil (non-specific binding, % estimation of radiolabeled ligand). The reactions started on adding the radiolabeled ligand followed by incubation for 60 minutes at 4° C. At the end of the incubation period, 200 μl of reaction were transferred to a multiscreen plate (Millipore) and filtered using a vacuum manifold and then washed three times with cold test buffer. The multiscreen plates were equipped with a GF/B filter that retained the membranes containing the receptors and the radiolabeled ligand which had been bound to the receptors. After washing, the plates were left till dry. Once dried, scintillation liquid was added and left under stirring overnight. The next day the plates were counted using a Perkin-Elmer Microbeta scintillation counter.
For analysis of the results the percentage of specific binding for every concentration of test compound was calculated as follows: specific binding−(X−N/T−N)×100 where, X: amount of bound ligand for every concentration of compound. T: total binding, maximum amount bound to the radiolabeled ligand. N: non-specific binding, amount of radiolabeled ligand bound in a non-specific way irrespective of the receptor used.
Every concentrations of compound were tested in triplicate and their mean values were used to determine the experimental values of % specific binding versus the concentration of compound. Affinity data are expressed as % inhibition at 10^−5M and 10^−7M concentrations.

Structure (SMILES)	inhibition in vivo at 0.98 µmol/kg (male CD1 mice)	inhibition in vivo at 98 µmol/kg (male CD1 mice)	% inhib 10^−5 M, affinity for the α1-subunit of the GABAA receptor (α1-GABAA receptor)	% inhib 10^−7 M, affinity for the α1-subunit of the GABAA receptor (α1-GABAA receptor)
CCN(CC)C(=O)Cc1c(-c2ccc(C)cc2)nc2ccc(Cl)nn12 [Example 1, 2-(6-Chloro-2-p-tolyl-imidazo[1,2-b]pyridazin-3-yl)-N,N-diethyl-acetamide]	27.6%	94.7%		
Cc1ccc(-c2nc3ccc(Cl)nn3c2CC(=O)N2CCCCC2)cc1 [Example 4, 2-(6-Chloro-2-p-tolyl-imidazo[1,2-b]pyridazin-3-yl)-1-piperidin-1-yl-ethanone]	38.4%	94.7%		
Cc1ccc(-c2nc3ccc(Cl)nn3c2CC(=O)N2CCOCC2)cc1 [Example 5, 2-(6-Chloro-2-p-tolyl-imidazo[1,2-b]pyridazin-3-yl)-1-morpholin-4-yl-ethanone]	41.1%	93.7%		
Cc1ccc(-c2nc3ccc(Cl)nn3c2CC(=O)N2CCCC2)cc1 [Example 6, 2-(6-Chloro-2-p-tolyl-imidazo[1,2-b]pyridazin-3-yl)-1-pyrrolidin-1-yl-ethanone]	51.9%	96.9%		
CCOc1ccc2nc(-c3ccc(Br)cc3)c(CC(=O)N3CCOCC3)n2n1 [Example 9, 2-[2-(4-Bromo-phenyl)-6-ethoxy-imidazo[1,2-b]pyridazin-3-yl]-1-morpholin-4-yl-ethanone]	19.9%	93.8%		
CCOc1ccc2nc(-c3ccc(Br)cc3)c(CC(=O)N3CCCCC3)n2n1 [Example 10, 2-[2-(4-Bromo-phenyl)-6-ethoxy-imidazo[1,2-b]pyridazin-3-yl]-1-piperidin-1-yl-ethanone]	29.5%	93.5%		
CCCCN(CCCC)C(=O)Cc1c(-c2ccc(Br)cc2)nc2ccc(OCC)nn12 [Example 11, 2-[2-(4-Bromo-phenyl)-6-ethoxy-imidazo[1,2-b]pyridazin-3-yl]-N,N-dibutyl-acetamide]	15.3%	79.8%		
CCCN(CCC)C(=O)Cc1c(-c2ccc(Br)cc2)nc2ccc(OCC)nn12 [Example 12, 2-[2-(4-Bromo-phenyl)-6-ethoxy-imidazo[1,2-b]pyridazin-3-yl]-N,N-dipropyl-acetamide]	15.1%	83.4%		
CCOc1ccc2nc(-c3ccc(Br)cc3)c(CC(=O)N(CC)CC)n2n1 [Example 13, 2-[2-(4-Bromo-phenyl)-6-ethoxy-imidazo[1,2-b]pyridazin-3-yl]-N,N-diethyl-acetamide]	15.1%	92.1%		
Cc1ccc2nc(-c3ccc(Br)cc3)c(CC(=O)N3CCOCC3)n2n1 [Example 14, 2-[2-(4-Bromo-phenyl)-6-methyl-imidazo[1,2-b]pyridazin-3-yl]-1-morpholin-4-yl-ethanone]	4.77%	95.6%		
CCCN(CCC)C(=O)Cc1c(-c2ccc(Br)cc2)nc2ccc(C)nn12 [Example 17, 2-[2-(4-Bromo-phenyl)-6-methyl-imidazo[1,2-b]pyridazin-3-yl]-N,N-dipropyl-acetamide]	9.91%	93.1%		
CCOc1ccc2nc(-c3ccc(Cl)cc3)c(CC(=O)N(CC)CC)n2n1 [Example 20, 2-[2-(4-Chloro-phenyl)-6-ethoxy-imidazo[1,2-b]pyridazin-3-yl]-N,N-diethyl-acetamide]		91.5%		
CCCCN(CCCC)C(=O)Cc1c(-c2ccc(Cl)cc2)nc2ccc(C)nn12 [Example 22, N,N-Dibutyl-2-[2-(4-chloro-phenyl)-6-methyl-imidazo[1,2-b]pyridazin-3-yl]-acetamide]	22.2%	88%		
CCCN(CCC)C(=O)Cc1c(-c2ccc(Cl)cc2)nc2ccc(OCC)nn12 [Example 23, 2-[2-(4-Chloro-phenyl)-6-ethoxy-imidazo[1,2-b]pyridazin-3-yl]-N,N-dipropyl-acetamide]	12.4%	91.7%		
CCCCN(CCCC)C(=O)Cc1c(-c2ccc(Cl)cc2)nc2ccc(OCC)nn12 [Example 24, N,N-Dibutyl-2-[2-(4-chloro-phenyl)-6-ethoxy-imidazo[1,2-b]pyridazin-3-yl]-acetamide]	3.65%	86.5%		
CCCCN(CCCC)C(=O)Cc1c(-c2ccc(F)cc2)nc2ccc(C)nn12 [Example 40, N,N-Dibutyl-2-[2-(4-fluoro-phenyl)-6-methyl-imidazo[1,2-b]pyridazin-3-yl]-acetamide]		91.8%		
CCCCN(CCCC)C(=O)Cc1c(-c2ccc(F)cc2)nc2ccc(OC)nn12 [Example 42, N,N-Dibutyl-2-[2-(4-fluoro-phenyl)-6-methoxy-imidazo[1,2-b]pyridazin-3-yl]-acetamide]		91%		
CCCCN(CCCC)C(=O)Cc1c(-c2ccc(OC)cc2)nc2ccc(C)nn12 [Example 72, N,N-Dibutyl-2-[2-(4-methoxy-phenyl)-6-methyl-imidazo[1,2-b]pyridazin-3-yl]-acetamide]		93.3%		
CCCCN(CCCC)C(=O)Cc1c(-c2ccc(OC)cc2)nc2ccc(OC)nn12 [Example 77, N,N-Dibutyl-2-[6-methoxy-2-(4-methoxy-phenyl)-imidazo[1,2-b]pyridazin-3-yl]-acetamide]		89.3%		
COc1ccc(-c2nc3ccc(OC)nn3c2CC(=O)N2CCCCC2)cc1 [Example 78, 2-[6-Methoxy-2-(4-methoxy-phenyl)-imidazo[1,2-b]pyridazin-3-yl]-1-piperidin-1-yl-ethanone]		91.1%	98.3%	26.5%
CCCN(CCOC(C)=O)C(=O)Cc1c(-c2ccc(C)cc2)nc2ccc(C)nn12 [Example 80, Acetic acid 2-{[2-(6-methyl-2-p-tolyl-imidazo[1,2-b]pyridazin-3-yl)-acetyl]-propyl-amino}-ethyl ester]		94.4%		
Cc1ccc(-c2nc3ccc(C)nn3c2CC(=O)N2CC(C)CC(C)C2)cc1 (stereo not shown) [Example 81, 1-(3,5-Dimethyl-piperidin-1-yl)-2-(6-methyl-2-p-tolyl-imidazo[1,2-b]pyridazin-3-yl)-ethanone]		90.8%		
Cc1ccc(NC(=O)Cc2c(-c3ccc(C)cc3)nc3ccc(C)nn23)cc1 [Example 87, 2-(6-Methyl-2-p-tolyl-imidazo[1,2-b]pyridazin-3-yl)-N-p-tolyl-acetamide]		90.7%	99.3%	57.2%
Cc1ccc2nc(-c3ccc(Br)cc3)c(CC(=O)NN)n2n1 [Example 100, [2-(4-Bromo-phenyl)-6-methyl-imidazo[1,2-b]pyridazin-3-yl]-acetic acid hydrazide]		93.7%		
Cc1ccc2nc(-c3ccc(Cl)cc3)c(CC(=O)NN)n2n1 [Example 102, [2-(4-Chloro-phenyl)-6-methyl-imidazo[1,2-b]pyridazin-3-yl]-acetic acid hydrazide]		85.5%		
